Results taken from ChEMBL document CHEMBL1201862, “PubChem BioAssay data set” (2004).
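These data come from cells grown in 96-well plates and exposed to compound for 48 hours at five concentrations. Abbreviation: GI50, concentration required for 50% inhibition of growth.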 Active and inactive are the calls of the source. No stated cut-off is given here; in the data, active = GI50 up to about 1.1 µM and inactive = higher.

Key:
Test in all cases: DTP human tumour cell line panel, 48 h
[1] = tested on: 786-0
[2] = tested on: HCC 2998
[3] = tested on: HCT-15
[4] = tested on: K562
[5] = tested on: LOX IMVI
[6] = tested on: M14
[7] = tested on: NCI-H460
[8] = tested on: NCI-H522
[9] = tested on: OVCAR-3
[10] = tested on: SK-MEL-28
[11] = tested on: SK-MEL-5
[12] = tested on: SK-OV-3
[13] = tested on: SR
[14] = tested on: TK-10
[15] = tested on: UACC-257
[16] = tested on: UACC-62
[17] = tested on: COLO 205
[18] = tested on: RPMI-8226

Row | Compound | GI50 [1] | GI50 [2] | GI50 [3] | GI50 [4] | GI50 [5] | GI50 [6] | GI50 [7] | GI50 [8] | GI50 [9] | GI50 [10] | GI50 [11] | GI50 [12] | GI50 [13] | GI50 [14] | GI50 [15] | GI50 [16] | GI50 [17] | GI50 [18]
1 | C/N=C(/NC)N(C)c1nc(=[N+](C)C)ss1.[O-][Cl+3]([O-])([O-])[O-] | > 100 µM (inactive) | > 100 µM (inactive) | 92.7 µM | 31.2 µM (inactive) | 78.9 µM (inactive) | > 100 µM (inactive) | > 100 µM (inactive) | 56.4 µM (inactive) | > 100 µM (inactive) | > 100 µM (inactive) | > 100 µM (inactive) | > 100 µM (inactive) | 55.5 µM (inactive) | > 100 µM (inactive) | > 100 µM (inactive) | > 100 µM (inactive) | – | –
2 | CCOc1ccc(NC(=O)C(=O)C(C(=O)c2ccc3ccccc3c2)C2OC(=O)c3ccccc32)cc1 (stereo not drawn) | 6.47 µM (inactive) | 11.2 µM (inactive) | 13.7 µM | 20.5 µM (inactive) | 15.7 µM (inactive) | 18.5 µM (inactive) | 5.09 µM (inactive) | 11.8 µM (inactive) | 16.2 µM (inactive) | 13.6 µM (inactive) | 14.2 µM (inactive) | 50.9 µM (inactive) | – | 50.7 µM (inactive) | 17 µM (inactive) | 13.7 µM (inactive) | 19.1 µM (inactive) | 4.8 µM (inactive)
3 | CCOC(=O)c1cc(OC(=O)CC)c2c(OC)ccc(OC)c2c1 | 31 µM (inactive) | > 100 µM (inactive) | 25.9 µM | 42.3 µM (inactive) | – | – | > 100 µM (inactive) | > 100 µM (inactive) | – | > 100 µM (inactive) | > 100 µM (inactive) | 21.9 µM (inactive) | 18.7 µM (inactive) | 47.1 µM (inactive) | – | 28.8 µM (inactive) | > 100 µM (inactive) | 30.5 µM (inactive)
4 | CN1CCN(C)C1c1cccc(C2N(C)CCN2C)c1 | > 100 µM (inactive) | > 100 µM (inactive) | > 100 µM | 46.2 µM (inactive) | > 100 µM (inactive) | > 100 µM (inactive) | > 100 µM (inactive) | > 100 µM (inactive) | > 100 µM (inactive) | > 100 µM (inactive) | – | > 100 µM (inactive) | – | – | – | > 100 µM (inactive) | > 100 µM (inactive) | > 100 µM (inactive)
5 | O=C(C#Cc1ccccc1)NC/C=C/c1ccccc1 | 24.2 µM (inactive) | 35.2 µM (inactive) | 38.9 µM | 33.6 µM (inactive) | 38.5 µM (inactive) | 55.3 µM (inactive) | 47.9 µM (inactive) | 29.7 µM (inactive) | 33 µM (inactive) | 76.4 µM (inactive) | 45.1 µM (inactive) | 22.2 µM (inactive) | 35.6 µM (inactive) | 47.3 µM (inactive) | > 100 µM (inactive) | 33.6 µM (inactive) | 83.4 µM (inactive) | –
6 | CC/C(=N/O)C(C)C(=O)CCC(=O)Nc1ccc(Cl)cc1 (stereo not drawn) | > 100 µM (inactive) | > 100 µM (inactive) | 26.9 µM | 57.1 µM (inactive) | > 100 µM (inactive) | > 100 µM (inactive) | > 100 µM (inactive) | – | > 100 µM (inactive) | > 100 µM (inactive) | > 100 µM (inactive) | > 100 µM (inactive) | – | > 100 µM (inactive) | > 100 µM (inactive) | 28.2 µM (inactive) | > 100 µM (inactive) | > 100 µM (inactive)
7 | Nc1nc[n+](Cc2ccccc2CCO)c2[nH]cnc12 | > 100 µM (inactive) | – | > 100 µM | > 100 µM (inactive) | > 100 µM (inactive) | > 100 µM (inactive) | > 100 µM (inactive) | > 100 µM (inactive) | > 100 µM (inactive) | > 100 µM (inactive) | > 100 µM (inactive) | > 100 µM (inactive) | – | > 100 µM (inactive) | > 100 µM (inactive) | > 100 µM (inactive) | > 100 µM (inactive) | > 100 µM (inactive)
8 | CCCCCCCCCCCCCP(=O)(O)NCC(N)=O | > 100 µM (inactive) | > 100 µM (inactive) | 39.9 µM | – | 51.5 µM (inactive) | 29.2 µM (inactive) | > 100 µM (inactive) | 34.5 µM (inactive) | 39 µM (inactive) | 39.1 µM (inactive) | 61.1 µM (inactive) | > 100 µM (inactive) | – | 58.3 µM (inactive) | 59.4 µM (inactive) | 52.4 µM (inactive) | > 100 µM (inactive) | 35.1 µM (inactive)
9 | COc1cccc2c1[C@]1(O)C(O)CCCC21 (stereo partly drawn) | > 100 µM (inactive) | > 100 µM (inactive) | > 100 µM | > 100 µM (inactive) | > 100 µM (inactive) | > 100 µM (inactive) | > 100 µM (inactive) | > 100 µM (inactive) | > 100 µM (inactive) | > 100 µM (inactive) | > 100 µM (inactive) | > 100 µM (inactive) | – | > 100 µM (inactive) | > 100 µM (inactive) | > 100 µM (inactive) | > 100 µM (inactive) | > 100 µM (inactive)
